Laboratory results from patent publication US20250236613A1, “SARM1 MODULATORS, PREPARATIONS, AND USES THEREOF” (SIRONAX LTD., priority 2021, published 2025).

Target: SARM1 (50-724) (Homo sapiens (Human), UniProt Q6SZW1)
Experiment: SARM1 (50-724) enzymatic assay
Type: biochemical
Details: SARM1 inhibitory activity; 2 nM SARM1 (50-724), 200 μM NMN activator, 100 μM NAD+ substrate, 1 h, LC-MS/MS
Method: The enzymatic assay was performed in a 384-well plate using Dulbecco's PBS buffer as the reaction buffer. Purified SARM1 (50-724) with a final concentration of 2 nM was pre-incubated with the test compound at 1% DMSO final assay concentration for 15 min at room temperature. The reaction was initiated by adding the mixture of 200 μM NMN as activator and 100 μM NAD^+ as substrate. After 1 h of incubation at room temperature, the reaction was terminated with 10 times volume of 70% acetonitrile, then centrifuged at 3800 rpm for 10 min. The samples were analyzed using LC-MS/MS after diluted to the proper concentration by 10 mM ammonium acetate (pH 9.75).

SARM1 (50-724), sequence (Q6SZW1 50-724): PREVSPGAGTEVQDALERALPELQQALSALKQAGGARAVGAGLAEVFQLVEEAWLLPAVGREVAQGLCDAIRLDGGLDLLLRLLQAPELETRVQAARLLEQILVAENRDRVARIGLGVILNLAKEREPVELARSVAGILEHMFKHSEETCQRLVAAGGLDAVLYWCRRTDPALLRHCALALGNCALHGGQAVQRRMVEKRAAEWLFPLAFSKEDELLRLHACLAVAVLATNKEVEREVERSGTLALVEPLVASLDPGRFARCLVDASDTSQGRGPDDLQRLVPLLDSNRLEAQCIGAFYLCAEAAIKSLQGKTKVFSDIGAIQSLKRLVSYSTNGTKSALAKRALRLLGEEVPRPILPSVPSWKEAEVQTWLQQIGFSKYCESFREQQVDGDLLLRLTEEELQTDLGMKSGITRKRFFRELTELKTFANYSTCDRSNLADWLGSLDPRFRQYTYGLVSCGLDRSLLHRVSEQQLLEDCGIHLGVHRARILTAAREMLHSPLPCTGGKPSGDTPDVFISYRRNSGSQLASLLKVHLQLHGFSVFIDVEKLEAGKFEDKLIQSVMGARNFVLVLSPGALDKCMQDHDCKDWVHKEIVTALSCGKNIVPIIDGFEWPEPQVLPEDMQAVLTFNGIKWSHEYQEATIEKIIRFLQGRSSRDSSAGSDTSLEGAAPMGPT

| Compound | IC50 |
| --- | --- |
| Cc1ccncc1-c1ccc2[nH]nc(N)c2c1 [Compound 65, 5-(4-methylpyridin-3-yl)-1H-indazol-3-amine] | > 30 µM |
| Cc1cc(Cl)ncc1-c1ccc2[nH]c(=O)oc2c1 [Compound 66, 6-(6-chloro-4-methylpyridin-3-yl)benzo[d]oxazol-2(3H)-one] | 15 to 30 µM |
| Cc1cc(C)c(-c2ccc3[nH]c(=O)oc3c2)cn1 [Compound 67, 6-(4,6-dimethylpyridin-3-yl)benzo[d]oxazol-2(3H)-one] | 15 to 30 µM |
| Cc1ccncc1-c1ccc2[nH]nc(F)c2c1 [Compound 68, 3-fluoro-5-(4-methylpyridin-3-yl)-1H-indazole] | < 5 µM |
| Cc1ccncc1-c1ccc(NC(=N)N)cc1 [Compound 69, 1-(4-(4-methylpyridin-3-yl)phenyl)guanidine] | 15 to 30 µM |
| Cc1ccncc1-c1ccc2c(c1)N(C)S(=O)(=O)N2 [Compound 70, 1-methyl-6-(4-methylpyridin-3-yl)-1,3-dihydrobenzo[c][1,2,5]thiadiazole 2,2-dioxide] | 15 to 30 µM |
| Cc1ccncc1-c1ccc2nc(N)ncc2c1 [Compound 71, 6-(4-methylpyridin-3-yl)quinazolin-2-amine] | 15 to 30 µM |
| Cc1ccncc1-c1ccc2c(c1)NC(=O)NC2 [Compound 72, 7-(4-methylpyridin-3-yl)-3,4-dihydroquinazolin-2(1H)-one] | 5 to 15 µM |
| CC(=O)Nc1nc2cc(-c3cnccc3C)ccc2[nH]1 [Compound 73, N-(5-(4-methylpyridin-3-yl)-1H-benzo[d]imidazol-2-yl)acetamide] | < 5 µM |
| Cc1ccncc1-c1ccc2[nH]ncc2c1F [Compound 74, 4-fluoro-5-(4-methylpyridin-3-yl)-1H-indazole] | 15 to 30 µM |
| Cc1ccncc1-c1ccc2[nH]c(=S)oc2c1 [Compound 75, 6-(4-methylpyridin-3-yl)benzo[d]oxazole-2(3H)-thione] | < 5 µM |
| Cc1ccncc1-c1ccc2c(c1)C(=O)C(=O)N2 [Compound 76, 5-(4-methylpyridin-3-yl)indoline-2,3-dione] | < 5 µM |
| Nc1cncc(-c2ccc3[nH]c(=O)oc3c2)c1 [Compound 77, 6-(5-aminopyridin-3-yl)benzo[d]oxazol-2(3H)-one] | 5 to 15 µM |
| Cc1ncncc1-c1ccc2[nH]c(=O)oc2c1 [Compound 78, 6-(4-methylpyrimidin-5-yl)benzo[d]oxazol-2(3H)-one] | > 30 µM |
| Cc1ccncc1-c1ccc2c(c1)CNC(=N)N2 [Compound 79, 6-(4-methylpyridin-3-yl)-3,4-dihydroquinazolin-2(1H)-imine] | < 5 µM |
| Cc1ccncc1-c1ccc2c(c1)COCC(=O)N2 [Compound 80, 7-(4-methylpyridin-3-yl)-1,5-dihydrobenzo[e][1,4]oxazepin-2(3H)-one] | < 5 µM |
| Cc1ccncc1-c1ccc2c(c1)C(F)(F)C(=O)N2 [Compound 81, 3,3-difluoro-5-(4-methylpyridin-3-yl)indolin-2-one] | < 5 µM |
| Cc1c[nH]c(=O)cc1-c1ccc2[nH]c(=O)oc2c1 [Compound 82, 6-(5-methyl-2-oxo-1,2-dihydropyridin-4-yl)benzo[d]oxazol-2(3H)-one] | 15 to 30 µM |
| CCc1ccncc1-c1ccc2[nH]c(=O)oc2c1 [Compound 83, 6-(4-ethylpyridin-3-yl)benzo[d]oxazol-2(3H)-one] | < 5 µM |
| O=c1[nH]c2ccc(-c3cccnc3)cc2o1 [Compound 84, 6-(pyridin-3-yl)benzo[d]oxazol-2(3H)-one] | < 5 µM |
| Cc1ccncc1-c1ccc2c(c1)OCCC(=O)N2 [Compound 85, 8-(4-methylpyridin-3-yl)-2,3-dihydrobenzo[b][1,4]oxazepin-4(5H)-one] | 5 to 15 µM |
| Cc1ccncc1-c1ccc2[nH]c(=O)sc2c1 [Compound 86, 6-(4-methylpyridin-3-yl)benzo[d]thiazol-2(3H)-one] | < 5 µM |
| O=c1[nH]c2ccc(-c3cncc(Nc4ccccc4)c3)cc2o1 [Compound 87, 6-(5-(phenylamino)pyridin-3-yl)benzo[d]oxazol-2(3H)-one] | < 5 µM |
| Cc1ccncc1-c1ccc2[nH]c(C#N)cc2c1 [Compound 88, 5-(4-methylpyridin-3-yl)-1H-indole-2-carbonitrile] | < 5 µM |
| Cc1ccncc1-c1ccc2[nH]c(C#N)nc2c1 [Compound 89, 5-(4-methylpyridin-3-yl)-1H-benzo[d]imidazole-2-carbonitrile] | < 5 µM |

| Compound | IC50 |
| --- | --- |
| COc1ccncc1-c1ccc2[nH]c(=O)oc2c1 [Compound 90, 6-(4-methoxypyridin-3-yl)benzo[d]oxazol-2(3H)-one] | < 5 µM |
| Cc1ccncc1-c1ccc2[nH]c(=O)oc2c1F [Compound 91, 7-fluoro-6-(4-methylpyridin-3-yl)benzo[d]oxazol-2(3H)-one] | 15 to 30 µM |
| Cc1ccncc1-c1ccc2[nH]nc(C#N)c2c1 [Compound 92, 5-(4-methylpyridin-3-yl)-1H-indazole 3-carbonitrile] | < 5 µM |
| Cc1ccncc1-c1ccc2[nH]nc(C(F)(F)F)c2c1 [Compound 93, 5-(4-methylpyridin-3-yl)-3-(trifluoromethyl)-1H-indazole] | 5 to 15 µM |
| Cc1ccnnc1-c1ccc2[nH]c(=O)oc2c1 [Compound 94, 6-(4-methylpyridazin-3-yl)benzo[d]oxazol-2(3H)-one] | < 5 µM |
| O=c1[nH]c2ccc(-c3cncc(Nc4cccc(O)c4)c3)cc2o1 [Compound 95, 6-(5-((3-hydroxyphenyl)amino)pyridin-3-yl)benzo[d]oxazol-2(3H)-one] | < 5 µM |
| O=c1[nH]c2ccc(-c3cncc(Nc4cccc(Cl)c4)c3)cc2o1 [Compound 96, 6-(5-((3-chlorophenyl)amino)pyridin-3-yl)benzo[d]oxazol-2(3H)-one] | < 5 µM |
| COc1cccc(Nc2cncc(-c3ccc4[nH]c(=O)oc4c3)c2)c1 [Compound 97, 6-(5-((3-methoxyphenyl)amino)pyridin-3-yl)benzo[d]oxazol-2(3H)-one] | < 5 µM |
| Cc1ccc(Nc2cncc(-c3ccc4[nH]c(=O)oc4c3)c2)cc1 [Compound 98, 6-(5-(p-tolylamino)pyridin-3-yl)benzo[d]oxazol-2(3H)-one] | < 5 µM |
| O=c1[nH]c2ccc(-c3cncc(Nc4ccc5c(c4)NCCC5)c3)cc2o1 [Compound 99, 6-(5-((1,2,3,4-tetrahydroquinolin-7-yl)amino)pyridin-3-yl)benzo[d]oxazol-2(3)-one] | < 5 µM |
| O=c1[nH]c2ccc(-c3cncc(Nc4ccc(F)cc4)c3)cc2o1 [Compound 100, 6-(5-((4-fluorophenyl)amino)pyridin-3-yl)benzo[d]oxazol-2(3H)-one] | < 5 µM |
| O=c1[nH]c2ccc(-c3cncc(Nc4cccc(F)c4)c3)cc2o1 [Compound 101, 6-(5-((3-fluorophenyl)amino)pyridin-3-yl)benzo[d]oxazol-2(3H)-one] | < 5 µM |
| O=c1[nH]c2ccc(-c3cncc(Nc4ccccc4F)c3)cc2o1 [Compound 102, 6-(5-((2-fluorophenyl)amino)pyridin-3-yl)benzo[d]oxazol-2(3H)-one] | < 5 µM |
| CC(C)c1cccc(Nc2cncc(-c3ccc4[nH]c(=O)oc4c3)c2)c1 [Compound 103, 6-(5-((3-isopropylphenyl)amino)pyridin-3-yl)benzo[d]oxazol-2(3H)-one] | < 5 µM |
| O=c1[nH]c2ccc(-c3cncc(Nc4ccc(Cl)cc4)c3)cc2o1 [Compound 104, 6-(5-((4-chlorophenyl)amino)pyridin-3-yl)benzo[d]oxazol-2(3H)-one] | < 5 µM |
| O=c1[nH]c2ccc(-c3cncc(Nc4cccnc4)c3)cc2o1 [Compound 105, 6-(5-(pyridin-3-ylamino)pyridin-3-yl)benzo[d]oxazol-2(3H)-one] | < 5 µM |
| CC(C)(C)OC(=O)N1CCCc2ccc(Nc3cncc(-c4ccc5[nH]c(=O)oc5c4)c3)cc21 [Compound 106, tert-butyl 7-((5-(2-oxo-2,3-dihydrobenzo[d]oxazol-6-yl)pyridin-3-yl)amino)-3,4-dihydroquinoline-1(2H)-carboxylate] | < 5 µM |
| N#Cc1cccc(Nc2cncc(-c3ccc4[nH]c(=O)oc4c3)c2)c1 [Compound 107, 3-((5-(2-oxo-2,3-dihydrobenzo[d]oxazol-6-yl)pyridin-3-yl)amino)benzonitrile] | < 5 µM |
| Cn1cc(Nc2cncc(-c3ccc4[nH]c(=O)oc4c3)c2)cn1 [Compound 108, 6-(5-((1-methyl-1H-pyrazol-4-yl)amino)pyridin-3-yl)benzo[d]oxazol-2(3H)-one] | < 5 µM |
| CN(c1ccccc1)c1cncc(-c2ccc3[nH]c(=O)oc3c2)c1 [Compound 109, 6-(5-(methyl(phenyl)amino)pyridin-3-yl)benzo[d]oxazol-2(3H)-one] | < 5 µM |
| CNc1cncc(-c2ccc3[nH]c(=O)oc3c2)c1 [Compound 110, 6-(5-(methylamino)pyridin-3-yl)benzo[d]oxazol-2(3H)-one] | < 5 µM |
| O=c1[nH]c2ccc(-c3cncc(Nc4ccncc4)c3)cc2o1 [Compound 111, 6-(5-(pyridin-4-ylamino)pyridin-3-yl)benzo[d]oxazol-2(3H)-one] | < 5 µM |
| O=c1[nH]c2ccc(-c3cc(Nc4ccccc4)cnn3)cc2o1 [Compound 112, 6-(5-(phenylamino)pyridazin-3-yl)benzo[d]oxazol-2(3H)-one] | < 5 µM |
| O=c1[nH]c2ccc(-c3cncc(Nc4ccccn4)c3)cc2o1 [Compound 113, 6-(5-(pyridin-2-ylamino)pyridin-3-yl)benzo[d]oxazol-2(3H)-one] | < 5 µM |
| O=c1[nH]c2ccc(-c3cncc(Nc4cncnc4)c3)cc2o1 [Compound 114, 6-(5-(pyrimidin-5-ylamino)pyridin-3-yl)benzo[d]oxazol-2(3H)-one] | < 5 µM |
